Laboratory results taken from patent US12673070B2, “Treatment of sepsis and hypercytokinemia” (TX MEDIC AB, priority 2020, dated 2026).
“Also recorded” adds a separate entry of the source.

How the values were obtained:
[1] = monoclonal antibodies neutralizing TNFα; cited from earlier work
[2] = system: human purified monocytes; test: Stimulated IL-6 release from human purified monocytes (ELISA), Example 2; format: cell-based; details: 24 hours, LMW-DS 60-600 μg/ml, heparin 2.0-20 μg/ml, dexamethasone 3.0 μM, n=10 donors; for LPS-stimulated IL-6 release into the cell culture supernatant: LPS (0.01 ng/ml); for peptidoglycan-stimulated IL-6 release into the cell culture supernatant: peptidoglycan (30 ng/ml)
Experimental: Peripheral blood mononuclear cells (PBMC) were isolated from healthy donors through Ficoll-Paque PLUS (GE Healthcare; 11778538) density centrifugation. Monocytes were purified using the EasySep™ human monocyte enrichment kit (StemCell) that purifies monocytes ‘untouched’ to maintain their phenotype.
Monocytes were cultured in the absence (unstimulated PBS vehicle controls) or presence of stimulation (LPS or peptidoglycan) in the absence (vehicle) or presence of LMW-DS (ILB®, Tikomed AB, Viken, Sweden, WO 2016/076780; three concentrations: 600 μg/ml, 200 μg/ml and 60 μg/ml), heparin (2.0, 6.0 or 20 μg/ml; equivalent to 0.406, 1.218 and 4.06 units/ml; Sigma Aldrich) or dexamethasone (3.0 μM; Sigma Aldrich) for 24 hours at 37° C., 5% CO2. Following centrifugation, cell culture supernatants were removed and stored at −20° C. awaiting analysis for IL-6 by ELISA. Levels of IL-6 were quantified in the supernatant by ELISA (R&D systems) according to manufacturer's instructions.

[3] = system: human PBMCs; test: Cytokine secretion from stimulated human PBMCs (5-plex Luminex), Example 3; format: cell-based; details: 24 hours; for stimulated secretion of IL-1β / stimulated secretion of IL-8 / stimulated secretion of TNFα: highest concentration of LMW-DS
Experimental: Example 1 investigated the ability of LMW-DS to modify the secretion of IL-6 from human PBMCs arising from the use of various stimuli. The present study performed a broader analysis of the cell culture supernatants arising from Example 1. Thus, peripheral blood mononuclear cells (PBMC) were isolated from healthy donors through Ficoll-Paque PLUS density centrifugation. The PBMC were cultured at 2×10^5 cells/well in the absence (unstimulated PBS vehicle controls) or presence of stimulation (LPS, peptidoglycan, pokeweed mitogen, PHA-L, CpG+IL-15, or Cytostim) in the absence (vehicle) or presence of LMW-DS (ILB®, Tikomed AB, Viken, Sweden, WO 2016/076780; three concentrations; 600 μg/ml, 200 μg/ml and 60 μg/ml) for 24 hours at 37° C., 5% CO2.
Accordingly, the treatments were as follows for each PBMC donor: • i. Vehicle • ii. Simulation • iii. Stimulation+LMW-DS (60 μg/ml) • iv. Stimulation+LMW-DS (200 μg/ml) • v. Stimulation+LMW-DS (600 μg/ml)
with each assessed in triplicate such that the total numbers of samples were: • 1. LPS; 165 samples (from 11 donors) • 2. Peptidoglycan from Bacillus subtilis; 90 samples (from 6 donors) • 3. PHA-L; 90 samples (from 6 donors) • 4. 0.2 μM CpG+IL-15; 90 samples (from 6 donors) • 5. 1.0 μM CpG+IL-15; 90 samples (from 6 donors) • 6. Pokeweed mitogen; 90 samples (from 6 donors) • 7. 10 μl/ml Cytostim; 90 samples (from 6 donors) • 8. 30 μl/ml Cytostim; 90 samples (from 6 donors) • Total number of supernatant samples from all stimulations (all cell types)=795
Following treatment, cell culture supernatants were removed, centrifuged and stored at −20° C. before thawing for multiplex analysis of various cytokines using the 5-plex human magnetic Luminex assay from R&D systems (Cat. No. LXSAHM-05). Luminex analysis was carried out exactly following manufacturer's protocols.

[4] = system: human peripheral blood mononuclear cells (PBMCs); test: Stimulated release of IL-6 from human PBMCs in vitro (ELISA), Example 1; format: cell-based; details: 24 hours
Experimental: PBMCs were isolated from healthy donors through Ficoll-Paque PLUS (GE Healthcare; 11778538) density centrifugation. PBMC were cultured at 2×10^5 cells/well in the absence (unstimulated phosphate-buffered saline (PBS) vehicle controls) or presence of stimulation (lipopolysaccharide (LPS), peptidoglycan, pokeweed mitogen, phytohemagglutinin-L (PHA-L), CpG+IL-15, or Cytostim) in the absence (vehicle) or presence of LMW-DS (ILB®, Tikomed AB, Viken, Sweden, WO 2016/076780) at three concentrations; 60 μg/ml, 200 μg/ml and 600 μg/ml for 24 hours at 37° C., 5% CO2. Following centrifugation, cell culture supernatants were removed and stored at −20° C. awaiting analysis for IL-6 by ELISA. Levels of IL-6 were quantified in the supernatant by ELISA (R&D systems; DY206) according to manufacturer's instructions.

[5] = system: IL-6; test: Serum IL-6 in MND/ALS patients treated with LMW-DS (Luminex), Example 4; format: in vivo, human; details: 8 ALS patients; weekly 1.0 mg/kg s.c.; measured at 10 weeks of treatment
Source text: Serum samples were taken from Motor Neuron Disease (MND)/Amyotrophic Lateral Sclerosis (ALS) patients in a clinical trial (EudraCT Number: 2018-000668-28) prior to and 5, 10 and 24 weeks following treatment with LMW-DS (ILB®, Tikomed AB, Viken, Sweden, WO 2016/076780). Frozen serum samples were thawed and quantified for IL-6 using the Luminex assay system (Bio-Plex 200 system with Bio-Plex Manager software) according to manufacturer's instructions. After an initial screening visit, patients had weekly dosing of a single LMW-DS (ILB®, Tikomed AB, Viken, Sweden, WO 2016/076780) injection of 1.0 mg/kg body weight in saline into the subcutaneous fat of the lower abdomen with a maximum of 1.5 mL at each injection site.
Statistical analysis was performed using the non-parametric Mann-Whitney U test with p<0.05 considered significant.

[6] = Cytostim stimulated PBMC, listed as Dextran sulfate
[7] = LPS (0.01 ng/ml) stimulated PBMC, 60, 200, 600 μg/ml
[8] = LPS (0.01 ng/ml) stimulated PBMC, 60, 200, 600 μg/ml, listed as Dextran sulfate
[9] = LPS (0.01 ng/ml) stimulated PBMC
[10] = LPS (0.01 ng/ml) stimulated PBMC, listed as Dextran sulfate
[11] = PHA-L (1.0 μg/ml) stimulated PBMC, 60, 200, 600 μg/ml
[12] = PHA-L (1.0 μg/ml) stimulated PBMC
[13] = PHA-L (1.0 μg/ml) stimulated PBMC, listed as Dextran sulfate
[14] = peptidoglycan (30 ng/ml) stimulated PBMC
[15] = pokeweed mitogen (1.0 μg/ml) stimulated PBMC, 60, 200, 600 μg/ml
[16] = pokeweed mitogen (1.0 μg/ml) stimulated PBMC, 60, 200, 600 μg/ml, listed as dextran sulfate
[17] = pokeweed mitogen (1.0 μg/ml) stimulated PBMC

adalimumab
half-life [1]: around 14 days

certolizumab
half-life [1]: around 14 days

heparin [reference compound]
LPS-stimulated IL-6 release into the cell culture supernatant [2]: concentration dependent statistically significant enhancement; also recorded: did not significantly suppress IL-6 levels in LPS activated monocytes but rather increased the levels | peptidoglycan-stimulated IL-6 release into the cell culture supernatant [2]: enhancement was mirrored to some extent by heparin although the trend did not reach statistical significance

infliximab
half-life [1]: around 14 days

low molecular weight dextran sulfate [LMW-DS]
secretion of IL-8 ([3]; CpG+IL-15 stimulated PBMC): little impact | IL-10 secretion ([3]; Cytostim stimulated PBMC, 60, 200, 600 μg/ml): concentration dependent large reduction | IL-10 secretion ([3]; Cytostim stimulated PBMC, 60, 200, 600 μg/ml, listed as Dextran sulfate): reduction | secretion of IFNγ ([3]; Cytostim stimulated PBMC): small reductions | secretion of IL-1β ([3]; Cytostim stimulated PBMC): small reductions | secretion of IL-8 ([3]; Cytostim stimulated PBMC): small reductions | secretion of TNFα ([3]; Cytostim stimulated PBMC): small reductions | secretion of IFNγ [3, 6]: reduction | secretion of IL-8 [3, 6]: reduction | secretion of TNFα [3, 6]: reduction | secretion of IFNγ [3, 7]: concentration dependent but small reduction | secretion of IL-10 [3, 7]: concentration dependent but small reduction | secretion of IFNγ [3, 8]: reduction | secretion of IL-10 [3, 8]: reduction | stimulated secretion of IL-1β [3, 9]: modest reduction | stimulated secretion of IL-8 [3, 9]: modest reduction | stimulated secretion of TNFα [3, 9]: modest reduction | stimulated secretion of IL-1β [3, 10]: reduction | stimulated secretion of IL-8 [3, 10]: reduction | stimulated secretion of TNFα [3, 10]: reduction | IL-10 secretion [3, 11]: large, concentration dependent decrease | IL-10 secretion ([3]; PHA-L (1.0 μg/ml) stimulated PBMC, 60, 200, 600 μg/ml, listed as Dextran sulfate): reduction | stimulated release of IFNγ [3, 12]: small decreases | stimulated release of IL-8 [3, 12]: small decreases | stimulated release of TNFα [3, 12]: small decreases | stimulated release of IFNγ [3, 13]: reduction | stimulated release of TNFα [3, 13]: reduction | IL-1β secretion [3, 14]: associated increases | TNFα secretion [3, 14]: associated increases | cytokine release (IL-8) ([3]; peptidoglycan (30 ng/ml) stimulated PBMC, up to highest concentration tested): little evidence of LMW-DS, even at the highest concentration tested, of causing a general reduction in cytokine release | IL-10 secretion [3, 15]: concentration-dependent decrease | IL-10 secretion [3, 16]: reduction | secretion of IFNγ [3, 17]: not impacted generally | secretion of IL-1β [3, 17]: not impacted generally | secretion of IL-8 [3, 17]: not impacted generally | secretion of TNFα [3, 17]: not impacted generally | LPS-stimulated IL-6 release into the cell culture supernatant [2]: concentration dependent statistically significant inhibition | LPS-stimulated IL-6 release into the cell culture supernatant ([2]; listed as Dextran sulfate): concentration dependent reduction | peptidoglycan-stimulated IL-6 release into the cell culture supernatant [2]: concentration dependent statistically significant increase | IL-6 release ([4]; CpG (0.2 μM)+IL-15 (15 ng/ml) stimulated PBMC): not generally impacted | IL-6 release ([4]; Cytostim (10 μl/ml) stimulated PBMC): not generally impacted | IL-6 release into the cell culture supernatant [4, 7]: concentration dependent and statistically significant reduction | IL-6 release into the cell culture supernatant [4, 8]: concentration dependent reduction | IL-6 release into the cell culture supernatant ([4]; LPS (0.01 ng/ml) stimulated PBMC, 60, 200, 600 μg/ml, listed as dextran sulfate): suppress IL-6 cytokine production | IL-6 release [4, 11]: inhibited significantly in a concentration-dependent manner | IL-6 release ([4]; higher concentration CpG (1.0 μM)+IL-15 (15 ng/ml) stimulated PBMC): no general impact | IL-6 release ([4]; higher concentration CpG (1.0 μM)+IL-15 (15 ng/ml) stimulated PBMC, listed as dextran sulfate): not significantly affecting | IL-6 release ([4]; higher concentration Cytostim (30 μl/ml) stimulated PBMC): no general impact | IL-6 release ([4]; higher concentration Cytostim (30 μl/ml) stimulated PBMC, listed as dextran sulfate): not significantly affecting | IL-6 release into the cell culture supernatant ([4]; peptidoglycan (30 ng/ml) stimulated PBMC, 60, 200, 600 μg/ml): little evidence of LMW-DS, even at the highest concentration tested, of causing a general reduction in IL-6 release | IL-6 release into the cell culture supernatant ([4]; peptidoglycan (30 ng/ml) stimulated PBMC, 60, 200, 600 μg/ml, listed as dextran sulfate): not significantly affecting | IL-6 release [4, 15]: not impacted generally | IL-6 release [4, 16]: not significantly affecting | serum IL-6 levels as % of Pre-LMW-DS levels [5]: statistically significant decrease
